ChEMBL document CHEMBL3351254, “Rational design, synthesis and anti-proliferative evaluation of novel 1,4-benzoxazine-[1,2,3]triazole hybrids” (2015)

Columns and labels:
Format in all cases: functional
HeLa = assay: Antiproliferative activity against human HeLa cells assessed as reduction in net protein increase after 48 hrs by SRB assay
MDA-MB-231 = assay: Antiproliferative activity against human MDA-MB-231 cells assessed as reduction in net protein increase after 48 hrs by SRB assay; conditions: MDA-MB-231, 48 h
[1] = Antiproliferative activity against human MiaPaCa cells assessed as reduction in net protein increase after 48 hrs by SRB assay; conditions: MIA PaCa-2, 48 h
[2] = Antiproliferative activity against human IMR32 cells assessed as reduction in net protein increase after 48 hrs by SRB assay; conditions: IMR-32, 48 h

| SMILES | GI50 (HeLa) | GI50 (MDA-MB-231) | GI50 [1] | GI50 [2] |
| --- | --- | --- | --- | --- |
| O=C1COc2ccccc2N1CCCn1cc(C2(O)CCCCC2)nn1 | 2 µM | 1.2 µM | 2.5 µM | 1.2 µM |
| COc1ccc2cc(-c3cn(CCCN4C(=O)COc5ccccc54)nn3)ccc2c1 | > 100 µM | 5 µM | > 100 µM | 1.3 µM |
| COc1cccc2c1C(=O)c1c(O)c3c(c(O)c1C2=O)C[C@@](O)(C(=O)CO)C[C@@H]3O[C@H]1C[C@H](N)[C@H](O)[C@H](C)O1 [DOXORUBICIN] | 0.073 µM | 0.085 µM | 0.097 µM | 0.023 µM |
| O=C1COc2ccccc2N1CCCn1cc(-c2cccnc2)nn1 | > 100 µM | 3 µM | 8.2 µM | 0.86 µM |
| CCCc1cn(CCCN2C(=O)COc3ccccc32)nn1 | 23.2 µM | 1.1 µM | 2.6 µM | 1.4 µM |
| O=C1COc2ccccc2N1CCCn1cc(CCCCl)nn1 | 0.1 µM | 6.4 µM | 12.5 µM | 0.2 µM |
| COc1ccc(-c2cn(CCCN3C(=O)COc4ccccc43)nn2)cc1 | 4.9 µM | 41.5 µM | 15.7 µM | 49.9 µM |
| CC(=O)O[C@H]1C(=O)[C@@]2(C)[C@H]([C@H](OC(=O)c3ccccc3)[C@]3(O)C[C@H](OC(=O)[C@H](O)[C@@H](NC(=O)c4ccccc4)c4ccccc4)C(C)=C1C3(C)C)[C@]1(OC(C)=O)CO[C@@H]1C[C@@H]2O [PACLITAXEL] | 0.025 µM | 0.091 µM | 0.056 µM | 0.075 µM |
| O=C1COc2ccccc2N1CCCn1cc(-c2ccccc2)nn1 | 9 µM | 4.9 µM | 94 µM | 0.37 µM |
| CCCCCCc1cn(CCCN2C(=O)COc3ccccc32)nn1 | 0.1 µM | 1.1 µM | 0.15 µM | 0.71 µM |
| O=C1COc2ccccc2N1CCCn1cc(-c2cc3ccccc3c3ccccc23)nn1 | > 100 µM | > 100 µM | 8.4 µM | 0.13 µM |
| Cc1ccc(-c2cn(CCCN3C(=O)COc4ccccc43)nn2)cc1 | 14.3 µM | 1.12 µM | > 100 µM | 4.4 µM |
| O=C1COc2ccccc2N1CCCn1cc(-c2ccccn2)nn1 | 10 µM | 4.8 µM | 5.8 µM | 2 µM |
| CCCCc1cn(CCCN2C(=O)COc3ccccc32)nn1 | 1.02 µM | 3.6 µM | 2.5 µM | 5.7 µM |
| CCCCCc1ccc(-c2cn(CCCN3C(=O)COc4ccccc43)nn2)cc1 | > 100 µM | 5 µM | > 100 µM | 43.5 µM |
| O=C1COc2ccccc2N1CCCn1cc(CO)nn1 | 7.3 µM | 5.7 µM | 1.01 µM | 5.5 µM |
